According to US11149062B2, “HDAC inhibitors and methods of treatment using the same” (UWM Research Foundation, Inc., priority 2015, dated 2021):

What was measured:
HeLa (cervical cancer) = test: MTT antiproliferative assay, HeLa; format: cell-based; settings: Homo sapiens, MTT, 48 h, read-out: Antiproliferative Activity GI50, Cervical HeLa
Method: (§1) Briefly, the tumor cells (1×10^4 cells/well) were seeded in 96-well microtiter plates and incubated for 24 h at 37° C. Following incubation, the media was replaced with fresh media containing the above compounds at concentrations ranging from 1 μM to 1 pM diluted in DMSO and incubated for an additional 48 h. Drugs were run in duplicate or triplicate and control cells received fresh media with DMSO concentration equivalent to the treatment groups. […] After aspirating the culture medium, 200 μL of DMSO was added to dissolve the precipitate and the resulting solution was measured for absorbance at 570 nm with a reference wavelength of 690 nm using a microplate reader (Infinite M200 Pro TECAN).

Recombinant human HDAC1 = molecular target: T1, Recombinant human HDAC1 (Homo sapiens, UniProt Q13547); test: HDAC-Glo I/II assay, HDAC1; format: biochemical; settings: for IC50: Class I HDAC, compounds reduced by TCEP prior to assay, read-out: IC50 of HDAC1; for Class I selectivity Ratio HDAC 1/HDAC8: ratio of IC50 values
T1 construct: purchased BPS Bioscience Inc
T1 sequence (Q13547 whole entry): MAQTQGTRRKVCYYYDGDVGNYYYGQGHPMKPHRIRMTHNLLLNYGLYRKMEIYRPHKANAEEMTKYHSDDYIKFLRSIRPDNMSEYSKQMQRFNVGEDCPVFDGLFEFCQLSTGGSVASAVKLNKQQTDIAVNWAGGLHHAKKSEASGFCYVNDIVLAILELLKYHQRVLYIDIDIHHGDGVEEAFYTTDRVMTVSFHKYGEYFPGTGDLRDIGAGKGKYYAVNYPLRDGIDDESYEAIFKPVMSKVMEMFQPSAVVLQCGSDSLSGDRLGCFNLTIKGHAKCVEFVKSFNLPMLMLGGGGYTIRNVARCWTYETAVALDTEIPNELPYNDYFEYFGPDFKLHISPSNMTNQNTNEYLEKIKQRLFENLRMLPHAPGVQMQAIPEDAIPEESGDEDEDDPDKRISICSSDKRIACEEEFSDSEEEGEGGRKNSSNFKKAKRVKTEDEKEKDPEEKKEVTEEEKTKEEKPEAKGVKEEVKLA
Method: (§2) The purified compounds of all fragments and natural product derivatives were evaluated for inhibitory effects on three different classes of HDAC proteins (class I, IIa, and IIb). […] All activity was determined by using a fluorescence-based in vitro assay. Class I HDAC proteins that were evaluated were HDAC1, HDAC2, HDAC3, HDAC8, HDAC4, and HDAC6. Class IIa HDAC protein were HDAC4 and the Class IIb HDAC protein were HDAC6.
(§3) HDAC-Glo™ I/II Assay and Screening System (Promega) was used to determine the HDAC inhibitory activity. Recombinant human HDAC1, HDAC2, HDAC3, HDAC4, HDAC6 and HDAC8 were purchased from BPS Bioscience Inc. The inhibitory activities of the test compounds against recombinant HDAC were performed according to reagent suppliers' protocols.
(§4) All test compounds were firstly dissolved in DMSO to make 10 mM stock solution. A certain amount of stock solution was diluted to 1 mM by DMSO and then reduced by tris(2-carboxyethyl)phosphine hydrochloride (TCEP) in a molar ration of 1:1.5 for 20 min at ambient temperature prior to being assayed. After reduction, a series of fivefold dilutions of each reduced compound were prepared with HDAC-Glo buffer and 25 μL of each dilution was added into a well on a 96-well plate. HDAC enzymes were diluted to the desired concentrations with HDAC-Glo buffer and 25 μL of each diluted enzyme was dispensed into a well to mix with 25 μL of testing compound at room temperature for 30-60 seconds. After the reaction mixture had been incubated at room temperature for 1 hour, 50 μL of HDAC-Glo reagent was added to each reaction well and mixed up for 30-60 seconds. Finally, the plate was incubated at room temperature for an additional 30 minutes before the luminescence was measured on a Synergy HT plate reader (Bio-Tek). The luminescence intensity data were analyzed using GraphPad Prism 5 (GraphPad Software). In the absence of any test compound, the luminescence intensity (I100) in each data set was defined as 100% activity. In the absence of both of HDAC enzymes and test compound, the luminescence intensity (I0) in each data set was defined as 0% activity. The relative activity (%) in the presence of each compound was calculated according to the following equation: % activity=(I−I0)/(I100−I0), where I=the luminescence intensity if a compound is present in the reaction. Experiments were performed in triplicate and the calculated mean values were used for plotting.

Recombinant human HDAC3 = molecular target: T2, Recombinant human HDAC3 (Homo sapiens, UniProt O15379); test: HDAC-Glo I/II assay, HDAC3; format: biochemical; settings: Class I HDAC; compounds reduced by TCEP prior to assay
T2 construct: purchased BPS Bioscience Inc
T2 sequence (O15379 whole entry): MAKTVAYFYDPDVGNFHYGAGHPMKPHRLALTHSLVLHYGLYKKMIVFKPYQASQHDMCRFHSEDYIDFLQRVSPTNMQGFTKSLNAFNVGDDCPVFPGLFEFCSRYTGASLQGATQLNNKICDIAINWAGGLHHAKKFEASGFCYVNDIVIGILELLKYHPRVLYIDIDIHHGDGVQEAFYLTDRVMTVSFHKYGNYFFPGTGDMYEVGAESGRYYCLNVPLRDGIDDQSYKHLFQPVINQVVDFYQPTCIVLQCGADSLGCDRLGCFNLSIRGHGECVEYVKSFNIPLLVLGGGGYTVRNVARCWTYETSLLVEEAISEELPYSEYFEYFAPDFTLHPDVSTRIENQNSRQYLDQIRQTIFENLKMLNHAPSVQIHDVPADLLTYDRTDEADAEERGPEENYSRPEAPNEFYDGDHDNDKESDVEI
T2 sequence (Q9Y618 395-489 partner limits assumed): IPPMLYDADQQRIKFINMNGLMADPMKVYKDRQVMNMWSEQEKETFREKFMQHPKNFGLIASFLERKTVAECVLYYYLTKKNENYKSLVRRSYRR
Method: as §2, §3, §4

HCT-116 (colon cancer) = test: MTT antiproliferative assay, HCT-116; format: cell-based; settings: Homo sapiens, HCT-116; MTT, 48 h; read-out: Antiproliferative Activity GI50, Colon HCT-116
Method: as §1

in vivo = settings: BALB/c, mouse, in vivo, ip
Text: BALB/c mice were purchased from The Jackson Laboratory (Bar Harbor, Me.) and used between 7 and 10 weeks of age. Mice were housed in a conventional animal vivarium and were given free access to food and water. All studies and procedures were approved by the Animal Care and Use Committee of the University of Wisconsin, Milwaukee.
Each animal was initially weighed using a digital scale and then intraperitoneally (IP) injected with the compounds (listed in Table 2). A single mouse was given a single IP dose of 200 mg/kg, body weight, a second mouse received a dose of 100 mg/kg and a third mouse received a single dose of 50 mg/kg. The mice were observed and weighed every other day for a period of 2 weeks. They were euthanized if they lost more than 20% of their body weight or if there were other signs of significant toxicity. […] This process was repeated until a tolerated dose was found, and the MTD value was determined.
To determine the MTD in vivo, the compounds listed above were injected intraperitoneally into BALB/c mice and morbidity and mortality were monitored over two weeks.

[1] = 10 mg/mL cpd in 20% DMSO/saline

Structure (SMILES) | GI50 (HeLa (cervical cancer)) | IC50 (Recombinant human HDAC1) | Class I selectivity Ratio HDAC 1/HDAC8 (Recombinant human HDAC1) | IC50 (Recombinant human HDAC3) | GI50 (HCT-116 (colon cancer)) | MTD at 2 weeks (in vivo) | Solubility [1]
CSCC[C@H]1NC(=O)CC(O)/C=C/CCSSC[C@H](C(=O)O)NC1=O (stereo partly drawn) [TDF3, (4S,7R,12E)-11-hydroxy-7-[2-(methylsulfanyl)ethyl]-6,9-dioxo-1,2-dithia-5,8-diazacyclopentadec-12-ene-4-carboxylic acid] | 600 nM | 22.9 nM | 0.00036 | 819 nM | 300 nM | > 200 mg/kg | Soluble
COC(=O)[C@H]1CSSCC/C=C/C(O)CC(=O)N[C@H](CCSC)C(=O)N1 (stereo partly drawn) [TDF3m, Methyl (4S,7R,12E)-11-hydroxy-7-[2-(methylsulfanyl)ethyl]-6,9-dioxo-1,2-dithia-5,8-diazacyclopentadec-12-ene-4-carboxylate] | 400 nM | 12.5 nM | 0.00028 | 623 nM | 200 nM | > 200 mg/kg | Partially soluble
